Results from patent EP0067711A2, “New 1-benzyl-3,4-dihydro-isoquinoline derivative” (CHINOIN Gyogyszer és Vegyészeti Termékek Gyára RT., priority 1981, dated 1982).

Legend:
[1] = tested on: haemodynamic and cardiovascular system; experiment: general effects on the haemodynamic and cardiovascular system in pentobarbital anaesthetized dogs; format: in vivo; design: A. vertebralis flow, Changed value: unit not given here; settings: 2 mg/kg i.v.
[2] = tested on: acute coronary insufficiency induced by vasopressine; experiment: anti-angina activity: inhibition of vasopressine-induced acute coronary insufficiency (rise of T-wave on ECG), method of Papp and Szekeres; format: in vivo, rats belonging to the CFY strain; settings: vasopressine 2 IU/kg i.v., pentobarbital anaesthetized CFY rats; papaverin = 1
[3] = tested on: electric fibrillation threshold of the auricle and ventricle; experiment: antiarrhythmial effect: change of electric fibrillation threshold in chloralose-urethane anaesthetized cats; format: in vivo; settings: 2 mg/kg i.v.
Description: The antiarrhythmial effect is determined on chloralose-urethane anaesthetized cats [500/300 mg/kg i.p.] by measuring the changes of the electric fibrillation threshold of the auricle and ventricle respectively [method of Szekeres, Méhes and Papp: Brit. 0. Pharmacol. 17, 167 (1961) and that of Szekeres and Papp: Hdb. exp. Pharmacol. 16/3, 131 (1975) respectively]. The general effects exerted on the haemodynamic and cardiovascular system are tested on pentobarbital anaesthetized dogs (35 mg/kg i.v.).

acute toxicity on rats = settings: rat, in vivo
Excerpt: (§1) The acute toxicity of the compound of the Formula I is characterized by the data enumerated in Table 3.

acute toxicity on mice = settings: mouse, in vivo, po
Excerpt: as §1

CCOc1ccc(CC2=NCCc3cc(OCC)c(OCC)cc32)cc1O [Formula I, 6,7-diethoxy-1-(4-ethoxy-3-hydroxy-benzyl)-3,4-dihydro-isoquinoline]
A. carotis flow, Duration of effect [1]: 7 min
A. carotis flow, Percental difference [1]: +27
A. carotis resistance, Duration of effect [1]: 7 min
A. carotis resistance, Percental difference [1]: -13
A. femoralis flow, Duration of effect [1]: 3 min
A. femoralis flow, Percental difference [1]: +44
A. femoralis resistance, Duration of effect [1]: 3 min
A. femoralis resistance, Percental difference [1]: -45
A. vertebralis flow, Duration of effect [1]: 2 min
A. vertebralis flow, Percental difference [1]: +51
A. vertebralis resistance, Duration of effect [1]: 2 min
A. vertebralis resistance, Percental difference [1]: -45
Arterial blood pressure, Duration of effect [1]: 5 min
Arterial blood pressure, Percental difference [1]: -22
Contractibility of the left ventricle (dP/dt), Duration of effect [1]: 2 min
Contractibility of the left ventricle (dP/dt), Percental difference [1]: -17
Coronary flow, Duration of effect [1]: 16 min
Coronary flow, Percental difference [1]: +36
Coronary resistance, Duration of effect [1]: 15 min
Coronary resistance, Percental difference [1]: -34
Efficiency of cardial function, Duration of effect [1]: 6 min
Efficiency of cardial function, Percental difference [1]: +45
Frequence volume, Duration of effect [1]: 35 min
Frequence volume, Percental difference [1]: +60
Function of the left ventricle, Duration of effect [1]: 7 min
Function of the left ventricle, Percental difference [1]: -20
Heart frequence/min, Duration of effect [1]: 31 min
Heart frequence/min, Percental difference [1]: -22
Minute volume, Duration of effect [1]: 4 min
Minute volume, Percental difference [1]: +11
Myocardial oxygenization (O2 supply per O2 consumption), Duration of effect [1]: 30 min
Myocardial oxygenization (O2 supply per O2 consumption), Percental difference [1]: +74
Oxygen consumption of the left ventricle, Duration of effect [1]: 22 min
Oxygen consumption of the left ventricle, Percental difference [1]: -29
Total peripherial resistance, Duration of effect [1]: 5 min
Total peripherial resistance, Percental difference [1]: -23
Efficiency of cardial function, Changed value ([1]; average ± S.E., basic value 0.11 ± 0.02): 0.16 ± 0.02 mkg/ml/100 g
Coronary resistance, Changed value ([1]; average ± S.E., basic value 1.16 ±0.06): 0.76 ± 0.06 Hgmm/ml/min/100 g
Function of the left ventricle, Changed value ([1]; average ± S.E., basic value 1.24 ± 0.08): 0.99 ± 0.16 mkg/min
Myocardial oxygenization (O2 supply per O2 consumption), Changed value ([1]; average ± S.E., basic value 1.70 ± 0.07): 2.95 ± 0.21
A. carotis resistance, Changed value ([1]; average ± S.E., basic value 2.33 ± 0.23): 2.02 ± 0.32 Hgmm/ml/min
A. vertebralis resistance, Changed value ([1]; average ± S.E., basic value 3.28 ± 0.33): 1.81 ± 0.17 Hgmm/ml/min
A. femoralis resistance, Changed value ([1]; average ± S.E., basic value 4.84 ± 0.86): 2.66 ± 0.42 Hgmm/ml/min
Frequence volume, Changed value ([1]; average ± S.E., basic value 5.5 ± 0.3): 8.8 ± 0.9 mL
Oxygen consumption of the left ventricle, Changed value ([1]; average ± S.E., basic value 11.6 ± 0.9): 8.2 ± 1.2 ml/min/100 g
A. femoralis flow, Changed value ([1]; average ± S.E., basic value 34 ± 7): 49 ± 10 mL/min
A. vertebralis flow, Changed value ([1]; average ± S.E., basic value 43 ± 6): 65 ± 9
A. carotis flow, Changed value ([1]; average ± S.E., basic value 70 ± 7): 89 ± 13 mL/min
Coronary flow, Changed value ([1]; average ± S.E., basic value 95 ± 5): 129 ± 9 ml/min/100 g
Arterial blood pressure, Changed value ([1]; average ± S.E., basic value 121 ± 5): 94 ± 4 Hgmm
Heart frequence/min, Changed value ([1]; average ± S.E., basic value 146 ± 8): 114 ± 9 min⁻¹
Minute volume, Changed value ([1]; average ± S.E., basic value 875 ± 42): 975 ± 34 mL/min
Contractibility of the left ventricle (dP/dt), Changed value ([1]; average ± S.E., basic value 5105 ± 434): 4248 ± 865 Hgmm/sec
Total peripherial resistance, Changed value ([1]; average ± S.E., basic value 10652 ± 991): 8185 ± 748 dyn. sec. cm^-5
anti-angina activity related to that of papaverin [2]: 1.40
Arterial blood pressure, Duration of effect [3]: 9 min
Arterial blood pressure, Percental difference [3]: -43
Auricle fibrillation threshold, Duration of effect [3]: 11 min
Auricle fibrillation threshold, Percental difference [3]: +58
Ventricle fibrillation threshold, Duration of effect [3]: 13 min
Ventricle fibrillation threshold, Percental difference [3]: +25
Auricle fibrillation threshold, Changed value ([3]; average ± S.E., basic value 0.73 ± 0.10): 1.15 ± 0.11 mA
Ventricle fibrillation threshold, Changed value ([3]; average ± S.E., basic value 2.07 ± 0.10): 2.58 ± 0.09 mA
Arterial blood pressure, Changed value ([3]; average ± S.E., basic value 139 ± 5): 79 ± 8 Hgmm
LD50 (acute toxicity on rats; iv, i.v. on rats ♀): 24.9 mg/kg
LD50 (acute toxicity on rats; iv, i.v. on rats ♂): 23 mg/kg
LD50 (acute toxicity on rats; po, p.o. on rats ♀): 625 mg/kg
LD50 (acute toxicity on rats; po, p.o. on rats ♂): 493 mg/kg
LD50 (acute toxicity on mice; p.o. on mice ♀): 165 mg/kg
LD50 (acute toxicity on mice; p.o. on mice ♂): 269 mg/kg
